The results in this text go back to US9249123B2, “Pyridinones/pyrazinones, method of making, and method of use thereof” (Genentech, Inc., priority 2010, dated 2016).

pEC50, pIC50: −log10 of the molar value.

Chain of full length human wildtype Btk (Q06187 whole entry): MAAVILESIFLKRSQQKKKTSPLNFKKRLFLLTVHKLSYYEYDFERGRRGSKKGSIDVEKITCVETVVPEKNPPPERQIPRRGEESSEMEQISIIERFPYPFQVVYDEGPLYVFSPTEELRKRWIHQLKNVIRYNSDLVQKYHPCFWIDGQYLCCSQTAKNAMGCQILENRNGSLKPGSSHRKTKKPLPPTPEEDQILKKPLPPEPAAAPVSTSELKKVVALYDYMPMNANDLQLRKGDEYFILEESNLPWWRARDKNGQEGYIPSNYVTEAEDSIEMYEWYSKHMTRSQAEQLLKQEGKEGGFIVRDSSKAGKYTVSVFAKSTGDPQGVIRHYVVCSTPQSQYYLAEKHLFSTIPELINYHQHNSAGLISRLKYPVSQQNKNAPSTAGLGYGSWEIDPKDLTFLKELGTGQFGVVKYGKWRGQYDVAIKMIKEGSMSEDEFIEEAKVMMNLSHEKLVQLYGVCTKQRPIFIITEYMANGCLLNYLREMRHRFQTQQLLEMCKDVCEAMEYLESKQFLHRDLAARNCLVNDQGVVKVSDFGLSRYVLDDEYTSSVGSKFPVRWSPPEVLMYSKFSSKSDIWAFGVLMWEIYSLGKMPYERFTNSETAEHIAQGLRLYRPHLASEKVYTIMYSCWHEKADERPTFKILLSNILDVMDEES

For the first assay, the system named is CD86 surface expression on CD19+/7AAD- total mouse splenocytes stimulated with IgM. Put plainly: CD86 Inhibition Assay. To be noted: Splenocyte; Balb/c mouse splenocytes, IgM stimulation, 24 hr. The class given is cell-based. The procedure:
A CD86 Inhibition assay can be conducted on Formula I compounds for the inhibition of B cell activity using total mouse splenocytes purified from spleens of 8-16 week old Balb/c mice (Example 905).
A generalized procedure for a standard assay for the inhibition of B cell activity that can be used to test Formula I compounds is as follows. Total mouse splenocytes are purified from spleens of 8-16 week old Balb/c mice by red blood cell lysis (BD Pharmingen #555899). Testing compounds are diluted to 0.5% DMSO and incubated with 1.25×10^6 splenocytes in a final volume of 200 μl in flat clear bottom plates (Falcon 353072) for 60 min at 37° C. Cells are then stimulated with the addition of 15 μg/ml IgM (Jackson ImmunoResearch 115-006-020), and incubated for 24 hr at 37° C., 5% CO2. Following the 24 hr incubation, cells are transferred to conical bottom clear 96-well plates and pelleted by centrifugation at 1200×g×5 min. Cells are preblocked by CD16/CD32 (BD Pharmingen #553142), followed by triple staining with CD19-FITC (BD Pharmingen #553785), CD86-PE (BD Pharmingen #553692), and 7AAD (BD Pharmingen #51-68981E). Cells are sorted on a BD FACSCalibur and gated on the CD19^+/7AAD^− population. The levels of CD86 surface expression on the gated population is measured versus test compound concentration. Exemplary results are in Table 3.
`Cc1c(-c2cn(C)c(=O)c(Nc3ccc(C4C(=O)NCCN4C)cc3)n2)cccc1N1Cc2cc(C(C)(C)C)sc2C1=O` (stereo not drawn) [Compound 134, 5-(3-{2-tert-butyl-6-oxo-4H,5H,6H-thieno[2,3-c]pyrrol-5-yl}-2-methylphenyl)-1-methyl-3-{[4-(1-methyl-3-oxopiperazin-2-yl)phenyl]amino}-1,2-dihydropyrazin-2-one]: the pEC50 (usually the negative decadic logarithm of the EC50, by convention in mol/L) was 5.72.

The next assay addresses full length human wildtype Btk (Homo sapiens (Human), UniProt Q06187). Put plainly: Biochemical Btk Assay.
Details: not given
The procedure: Formula I compounds were tested by a standard biochemical Btk Kinase Assay (Example 901). A generalized procedure for a standard biochemical Btk Kinase Assay that can be used to test Formula I compounds is as follows. […] A master mix plus Btk enzyme is prepared containing 1× Cell Signaling kinase buffer, 0.5 μM PTK Biotinylated peptide substrate 2, 0.01% BSA, and 100 ng/well (0.06 mU/well) Btk enzyme. Btk enzyme is prepared as follows: full length human wildtype Btk (accession number NM-000061) with a C-terminal V5 and 6×His tag was subcloned into pFastBac vector for making baculovirus carrying this epitope-tagged Btk. Generation of baculovirus is done based on Invitrogen's instructions detailed in its published protocol “Bac-to-Bac Baculovirus Expression Systems” (Cat. Nos. 10359-016 and 10608-016). […] The Btk protein is then purified to homogeneity using Ni-NTA column. The purity of the final protein preparation is greater than 95% based on the sensitive Sypro-Ruby staining. A solution of 200 μM ATP is prepared in water and adjusted to pH7.4 with 1N NaOH. A quantity of 1.25 μL of compounds in 5% DMSO is transferred to a 96-well ½ area Costar polystyrene plate. Compounds are tested singly and with an 11-point dose-responsive curve (starting concentration is 10 μM; 1:2 dilution). A quantity of 18.75 μL of master mix minus enzyme (as a negative control) and master mix plus enzyme is transferred to appropriate wells in 96-well ½ area costar polystyrene plate. 5 μL of 200 μM ATP is added to that mixture in the 96-well ½ area Costar polystyrene plate for final ATP concentration of 40 μM. The reaction is allowed to incubate for 1 hour at room temperature. The reaction is stopped with Perkin Elmer 1× detection buffer containing 30 mM EDTA, 20 nM SA-APC, and 1 nM PT66 Ab. The plate is read using time-resolved fluorescence with a Perkin Elmer Envision using excitation filter 330 nm, emission filter 665 nm, and 2nd emission filter 615 nm. IC50 values are subsequently calculated. Alternatively, the Lanthascreen assay can be used to evaluate Btk activity through quantification of its phosphorylated peptide product. The FRET (Fluorescence Resonance Energy Transfer) that occurs between the fluorescein on the peptide product and the terbium on the detection antibody decreases with the addition of inhibitors of Btk that reduce the phosphorylation of the peptide. […] The reaction is initiated by the addition of ATP to 25 uM (Km of ATP). After incubation for 60 minutes at room temperature, the reaction is stopped by the addition of a final concentration of 2 nM Tb-PY20 detection antibody in 60 mM EDTA for 30 minutes at room temperature. Detection is determined on a Perkin Elmer Envision with 340 nm excitation and emission at 495 nm and 520 nm. Exemplary Btk inhibition IC50 values are in Tables and 2.
Take `Cc1c(-c2cn(C)c(=O)c(Nc3ccc(C4NCCN(C)C4=O)cc3)n2)cccc1N1Cc2cc(C(C)(C)C)sc2C1=O` (stereo not drawn) [Compound 102, 2-tert-butyl-5-(2-methyl-3-(4-methyl-6-(4-(4-methyl-3-oxopiperazin-2-yl)phenylamino)-5-oxo-4,5-dihydro-pyrazin-2-yl)phenyl)-4H-thieno[2,3-c]pyrrol-6(5H)-one]: the pIC50 (usually the IC50 on a negative log10 scale, so that one unit is a factor of ten) was 7.94.

Take `Cc1c(-c2cn(C)c(=O)c(Nc3ccc(C4C(=O)NCCN4C)cc3)n2)cccc1N1Cc2cc(C(C)(C)C)sc2C1=O` (stereo not drawn) [Compound 104, 2-tert-butyl-5-(2-methyl-3-(4-methyl-6-(4-(1-methyl-3-oxopiperazin-2-yl)phenylamino)-5-oxo-4,5-dihydropyrazin-2-yl)phenyl)-4H-thieno[2,3-c]pyrrol-6(5H)-one]: the pIC50 was 7.02.

On to `CN1CCN(C)[C@@H](c2ccc(Nc3nc(-c4ccc(F)c(N5Cc6cc(C(C)(C)C)sc6C5=O)c4F)cn(C)c3=O)cc2)C1=O` [Compound 130, 5-(3-{2-tert-butyl-6-oxo-4H,5H,6H-thieno[2,3-c]pyrrol-5-yl}-2,4-difluorophenyl)-3-({4-[(2S)-1,4-dimethyl-3-oxopiperazin-2-yl]phenyl]amino)-1-methyl-1,2-dihydropyrazin-2-one], for which the pIC50 was 7.47.

In turn, `CN1CCN(C)[C@@H](c2ccc(Nc3nc(-c4ccc(F)c(N5Cc6cc(C(C)(C)C)sc6C5=O)c4)cn(C)c3=O)cc2)C1=O` [Compound 131, 5-(3-{2-tert-butyl-6-oxo-4H,5H,6H-thieno[2,3-c]pyrrol-5-yl}-4-fluorophenyl)-3-({4-[(2S)-1,4-dimethyl-3-oxopiperazin-2-yl]phenyl}amino)-1-methyl-1,2-dihydropyrazin-2-one] gave a pIC50 of 7.32.

In the case of `Cc1c(-c2cn(C)c(=O)c(Nc3ccc(C4C(=O)NCCN4C)cc3)n2)cccc1N1Cc2cc(C(C)(C)C)sc2C1=O` (stereo not drawn) [Compound 134, 5-(3-{2-tert-butyl-6-oxo-4H,5H,6H-thieno[2,3-c]pyrrol-5-yl}-2-methylphenyl)-1-methyl-3-{[4-(1-methyl-3-oxopiperazin-2-yl)phenyl]amino}-1,2-dihydropyrazin-2-one], the pIC50 was 7.61.
